Experiments:
[1] = tested on: peripheral blood lymphocyte (PBL) count; assay: Peripheral lymphocyte lowering (PLL) in mice; format: in vivo, C57BL/6j mice; settings: Mus musculus, oral, 5 hours after administration, read-out: IC50 of peripheral blood lymphocyte (PBL) count decrease
Method: (§1) Mice: SPF female C57BL/6j mice, weighing 19-22 g. Rats: Male Sprague-Dawley rats, weighing 200-220 g. Feeding environment: the temperature was 23±2° C., the relative humidity was 40-70%, and the lighting time was at 7:00 in the morning to 7:00 in the evening; animals were freely fed with common feed and sterilized drinking water. All animal experiments were approved by the animal ethics committee; all animal experiments were carried out in accordance with the relevant SOP requirements of animal room. Animals were reared adaptively for one week before the experiment.
(§2) Animals were administered orally with a volume of 10 mL/kg. The vehicle for administration was 0.5% DMSO+0.5% MC. Animals were anesthetized with isoflurane 5 hours after administration, and 100-150 μL of peripheral blood was collected through the eye socket in EP tubes, placed on ice. The lymphocyte count of blood analysis was detected by XT-2000i automated hematology analyzer within 30 minutes. Another 20 μL of whole blood was diluted with 40 μL of DDW, and snap frozen in liquid nitrogen, the concentration of the compounds in blood was detected.

[2] = tested on: peripheral blood lymphocyte (PBL) count; assay: Peripheral lymphocyte lowering (PLL) in rats; format: in vivo, Sprague-Dawley rats; settings: Rattus norvegicus, oral, 5 hours after administration, read-out: IC50 of peripheral blood lymphocyte (PBL) count decrease
Method: as §1, §2

[3] = tested on: experimental autoimmune encephalomyelitis (EAE); assay: Experimental autoimmune encephalomyelitis (EAE) in mice; format: in vivo, C57BL/6J mice; settings: days 5-37
Method: Female C57BL/6J mice were immunized with MOG35-55 antigen emulsion. 2 hours after immunization, each animal was injected with 200 ng/100 μL PTX solution intraperitoneally. After 24 hours (the second day), the same dose of PTX solution was injected once again. On the fifth day, the animals in each group began to administer the drug, and each group was given the drug by gavage, with a dosage of 10 mL/kg, once a day for 33 consecutive days (days 5-37). During the experiment, general clinical observation was carried out twice a day, and the weight and EAE clinical scores were measured once a day after administration. The score was divided into five grades: (0. normal mice, no obvious disease; 1. tail weakness or hind limb weakness; 2. tail weakness and hind limb weakness; 3. hemiplegia of hind limbs; 4. complete paralysis of hind limbs; 5, died of EAE or euthanasia in near-death state).

[4] = tested on: DNBS-induced colitis; assay: Rat colitis model induced by DNBS; format: in vivo, Wistar rats; settings: DNBS rats
Excerpt: The Wistar rat ulcerative enteritis model induced by DNBS (2, 4-dinitrobenzenesulfonic acid) is also one of the commonly used models for development of enteritis drugs. DNBS combines with intestinal tissue protein to form complete antigen, which increases vascular permeability, activates inflammatory transmitters, increases fibrinolytic activity, and makes the body produce immune response against intestinal mucosa, resulting in persistent ulcer and inflammation of intestinal mucosa in rats.
The experimental animals were Wistar rats, male, 5-6 weeks old, 140-160 g. The animals were kept in SPF room with a room temperature of 20-26° C., a humidity of 40-70%, fluorescent lamp lighting, 12 hours of lighting (08:00-20:00) and 12 hours of no lighting, with 2-5 animals in each cage (same administration group). […]
Drug treatment: 4 hours after modeling, animals were given with different concentrations of drugs or 0.5% methylcellulose by gavage, 10 mL/kg, once a day for 7 consecutive days. […] After administration, the animals were euthanized, colon tissues were collected, colon length, colon weight and ulcer area were measured, and colon injury in rats was evaluated macroscopically, so as to evaluate the therapeutic effect of the tested drugs on DNBS-induced inflammatory colitis model in rats.

[5] = In vivo pharmacokinetics in rats, intravenous injection and oral administration; parameters: species or system Sprague Dawley rats; settings: rat; for AUC(0-inf) / clearance / half-life / Cmax: male, Sprague-Dawley, plasma
Method: In this experimental embodiment, in vivo pharmacokinetic evaluation was performed in rats by intravenous injection and oral administration.
Experimental methods and conditions: male Sprague Dawley rats were given the test compounds 1 mg/kg (solvent 5% DMSO/15% Solutol/80% Saline) by intravenous injection and 1 mg/kg (solvent 0.5% MC) by oral gavage respectively. 5 min, 15 min, 30 min, 1 hr, 2 hr, 4 hr, 6 hr, 8 hr, 24 hr after administration, blood was collected from submandibular vein, each sample was collected about 0.20 mL, and heparin sodium was used for anti coagulation. After collection, the sample was placed on ice, and the blood was centrifuged to be measured within one hour. Blood drug concentration in plasma was detected by liquid chromatography tandem mass spectrometry (LC/MS/MS), and the pharmacokinetic parameters were calculated by Phoenix WinNonlin software.

[6] = cited from earlier work
[7] = intravenous administration 1 mg/kg

IC50 [1] [nM]	IC50 [2] [nM]	AUC(0-inf) [5, 7] [ng·h/mL]	clearance [5, 7] [mL/min/kg]	half-life [5, 7] [h]	AUC(0-inf) ([5]; oral administration 1 mg/kg) [ng·h/mL]	Cmax ([5]; oral administration 1 mg/kg) [ng/mL]	half-life ([5]; oral administration 1 mg/kg) [h]	F ([5]; oral administration 1 mg/kg) [%]	SMILES	disease symptoms (EAE clinical score) ([3]; 1 mg/kg by gavage once a day)	disease symptoms (EAE clinical score) ([3]; 5 mg/kg by gavage once a day)	area of colonic ulcer ([4]; 0.2 mg/kg by gavage once a day for 7 days)	area of colonic ulcer ([4]; 1 mg/kg by gavage once a day for 7 days)	half-life in human body [6] [h]
24.7	5.3	4140	4.17	1.4	649	162	2.9	13.3	Cc1c(CCC(=O)O)[nH]c2ccc(OCc3ccc(C4CCCC4)c(C(F)(F)F)c3)cc12 [Compound 16]	significantly reduce	significantly reduce	significantly reduce	significantly reduce	
									CCCCCCCCc1ccc(CCC(N)(CO)CO)cc1 [FTY720, Fingolimod]					140 to 220
18.5	4.1	4750	3.5	2.8	1190	184	3.9	17.4	O=C(O)CCc1[nH]c2ccc(OCc3ccc(C4CCCC4)c(C(F)(F)F)c3)cc2c1Cl [Compound 13]	significantly reduce				
